Assay results: US20160324881A1, “Neurokinin-1 Receptor Antagonists For Use In A Method Of Prevention Of Cancer” (priority 2013, published 2016)
Like-named read-outs stand apart in the source and are kept apart here.

Legend:
MDA-MB231 cells = test: Soft agar growth assay (Alamar Blue), MDA-MB231; assay type: cell-based; settings: Homo sapiens, MDA-MB-231, 264 h
Protocol: (§2) Aprepitant (Biorbit) and fosaprepitant (IVEMEND®, MSD) were dissolved at a concentration of 100 mM in 100% DMSO (aprepitant) or in 0.9% NaCl (fosaprepitant). Actinomycin D was used as reference compound.
(§3) Stock solutions were diluted covering the final concentration range between 0 and 200 μM. The appropriate solvent controls were performed in parallel.
(§4) Compounds dissolved in DMSO (aprepitant as well as Actinomycin D) were diluted in 8 semilog steps in DMSO to obtain a dilution series with the 1000 fold final concentration.
(§5) Fosaprepitant was diluted in 8 semilog steps in 0.9% NaCl to obtain a dilution series with the 1000 fold final concentration.
(§6) Cancer cells stemming from established cancer cell lines (A549, HCT116, MDA-MB231) were cultured in DMEM containing 10% FCS and Penicillin/Streptomycin.
(§7) For each cell line 96 well suspension cell culture plates were prepared. 100 μL of the soft agar bottom layer (0.6% final concentration in complete medium) was poured and left to solidify. […]
(§8) Next day, compounds were added into the inner wells of the plate. […] Finally, the assays were developed using Alamar Blue and upon 3-5 h of incubation at 37° C. fluorescence intensity was determined (excitation: 560 nm; emission: 590 nm). […]

NK1 receptors = NK1 receptors (Homo sapiens, UniProt P25103); settings: versus other receptors such as serotonin, dopamine, corticosteroid; estimated; cited from earlier work
NK1 receptors, sequence (P25103 whole entry): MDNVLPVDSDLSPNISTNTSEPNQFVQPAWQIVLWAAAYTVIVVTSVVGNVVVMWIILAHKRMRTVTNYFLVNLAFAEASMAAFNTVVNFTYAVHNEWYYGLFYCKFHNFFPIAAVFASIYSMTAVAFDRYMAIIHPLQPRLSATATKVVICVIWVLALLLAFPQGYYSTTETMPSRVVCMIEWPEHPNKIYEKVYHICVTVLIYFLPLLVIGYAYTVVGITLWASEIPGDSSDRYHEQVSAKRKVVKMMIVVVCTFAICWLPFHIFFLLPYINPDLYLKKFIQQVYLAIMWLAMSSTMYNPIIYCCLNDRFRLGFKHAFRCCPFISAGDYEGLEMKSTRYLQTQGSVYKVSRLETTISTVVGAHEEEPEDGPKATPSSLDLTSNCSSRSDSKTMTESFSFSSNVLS

MDA-MB-231 cells = test: Xenograft tumor model, preventive application, MDA-MB-231; settings: aprepitant 100 mg/kg p.o., fosaprepitant 60 mg/kg i.v., 1x daily from day -2
Protocol: (§9) The ability of fosaprepitant and aprepitant to prevent tumor formation in xenograft models for breast cancer, lung cancer and colon cancer was investigated.
(§10) Monolayer MDA-MB-231 cells, HCT-116 cells and A549 cells, respectively, were grown in DMEM+10% FCS. The cells were cultured in a humidified atmosphere of 90% air and 10% carbon dioxide at 37° C. Media was routinely changed every 3 days. Confluent cultures were split 1:3 to 1:3 every 3-4 days using Trypsin/EDTA and seeded at a density of approximately 3-4×10^6 cells/15 cm^2+25 mL medium.
(§11) Female BALB/c nude (CAnN.Cg-Foxn1^nu/Crl) Mice (Charles River GmbH, Sulzfeld, Germany) aged 4-5 weeks at delivery and weighing approximately 15-18 g were kept under optimum hygienic conditions, air-conditioned with 10-15 air changes per hour, and continually monitored environment with target ranges for temperature 22±3° C. and for relative humidity 30-70%, 12 hours artificial fluorescent light/12 hours dark. Maximum 4 animals were kept per individual ventilated cage (IVC) and fed with a diet consisting of M-Zucht (ssniff Spezialdiáten GmbH) and autoclaved community tab water.
(§12) After an acclimatization period of 4 days (day −2) application of fosaprepitant, aprepitant and vehicle was started: Fosaprepitant was administered intravenously (i.v.) once daily for 20 days, and aprepitant was administered per oral gavage (p.o.) once daily for 20 days. Fosaprepitant was dissolved in 0.9% NaCl and 0.9% NaCl was used analogous to fosaprepitant as control (vehicle 1). As aprepitant is not water-soluble, it was provided as a suspension of ground EMEND® tablets in OraPlus® (Paddock Laboratories, Minneapolis, USA; contains: purified water, microcrystalline cellulose, carboxymethylcellulose sodium, xanthan gum, flavouring, citric acid, sodium phosphate, simethicone, methylparaben, and potassium sorbate, pH 4.2) and OraPlus® was used analogous to aprepitant as control (vehicle 2).
(§13) In the following, animal weights were measured (balance: Mettler Toledo PB602-L). Primary tumor sizes were measured by callipering (manual calliper, OMC Fontana). Tumor sizes were calculated according to the formula W^2×L/2 (L=length and W=the perpendicular width of the tumor, L>W).
(§14) Animal behavior and welfare was observed daily and tumor growth was recorded every two days by calliper measurement over a period of 30 days.

[1] = cited from earlier work
HCT116 cells = test: Soft agar growth assay (Alamar Blue), HCT116; assay type: cell-based; settings: Homo sapiens, HCT-116, 192 h
Protocol: as §2, §3, §4, §5, §6, §7, §8

[2] = capsules; cited from earlier work
A549 cells [3] = test: Soft agar growth assay (Alamar Blue), A549; assay type: cell-based; settings: Homo sapiens
Protocol: as §2, §3, §4, §5, §6, §7, §8

brain tumors = settings: background report; cited from earlier work
HCT-116 cells = test: Xenograft tumor model, preventive application, HCT116; settings: aprepitant 100 mg/kg p.o., fosaprepitant 60 mg/kg i.v., 1x daily from day -2
Protocol: as §9, §10, §11, §12, §13, §14

[4] = system: MDA-MB-231 cells (triple negative tumor cells); test: Example 5: preventive treatment of xenografted nude mice (FIG. 4); assay type: in vivo; settings: MDA-MB-231 xenograft; fosaprepitant i.v. 60 mg/kg/d, aprepitant p.o. 100 mg/kg/d, once daily for 19 days from day -2
Protocol: (§1) After an acclimatization period, application of fosaprepitant, aprepitant and vehicle control was started (day −2): Fosaprepitant was administered intravenously (i.v.; 60 mg/kg/d) once daily for 19 days, and aprepitant was administered per oral gavage (p.o.; 100 mg/kg/d) once daily for 19 days. […] The tumor volume was measured and depicted as mm3 at the indicated time points.
as §1, with “FIG. 4: In vivo treatment of xenografted mice with fosaprepitant and aprepitant. After” for “After”

A549 cells [5] = test: Xenograft tumor model, preventive application, A549; settings: aprepitant 100 mg/kg p.o., fosaprepitant 60 mg/kg i.v., 1x daily from day -2
Protocol: as §9, §10, §11, §12, §13, §14

[6] = MDA-MB-231, 10 days after tumor cell inoculation
[7] = MDA-MB-231, 20 days after tumor cell inoculation
[8] = MDA-MB-231, 30 days after tumor cell inoculation
[9] = HCT116, 10 days after tumor cell inoculation
[10] = HCT116, 20 days after tumor cell inoculation
[11] = HCT116, 30 days after tumor cell inoculation
[12] = A549, 10 days after tumor cell inoculation
[13] = A549, 20 days after tumor cell inoculation
[14] = A549, 30 days after tumor cell inoculation

Row | IC50 (MDA-MB231 cells; MDA-MB231 (breast), soft agar growth, incubation time 11 days, read-out: IC50) [µM] | IC50 (HCT116 cells; HCT116 (colon), soft agar growth, incubation time 8 days, read-out: IC50) [µM] | IC50 (A549 cells [3]; 192 h, A549 (lung), soft agar growth, incubation time 8 days, read-out: IC50) [µM] | SMILES | selectivity of NK1 receptors compared to other enzyme transporter, ion channels (NK1 receptors) | Tumor volume (mean) (MDA-MB-231 cells; [6]) [mm^3] | Tumor volume (mean) (MDA-MB-231 cells; [7]) [mm^3] | Tumor volume (mean) (MDA-MB-231 cells; [8]) [mm^3] | water solubility [1] | average oral bioavailability [2] | brain tumor growth (brain tumors) | Tumor volume (mean) (HCT-116 cells; [9]) [mm^3] | Tumor volume (mean) (HCT-116 cells; [10]) [mm^3] | Tumor volume (mean) (HCT-116 cells; [11]) [mm^3] | Tumor growth on preventive application [4] | Tumor volume (mean) (A549 cells [5]; [12]) [mm^3] | Tumor volume (mean) (A549 cells [5]; [13]) [mm^3] | Tumor volume (mean) (A549 cells [5]; [14]) [mm^3] | IC50 (MDA-MB231 cells) [µM] | IC50 (HCT116 cells) [µM] | IC50 (A549 cells [3]; A549, 192 h) [µM]
1 | 17 | 3.4 | 3.6 | C[C@@H](O[C@H]1OCCN(Cc2nc(=O)[nH][nH]2)[C@H]1c1ccc(F)cc1)c1cc(C(F)(F)F)cc(C(F)(F)F)c1 [Aprepitant] | at least 3000 times | <20 | <20 | <20 | virtually water-insoluble | 60-65% | reduce brain tumor growth | <20 | <20 | <20 | reduced growth of triple negative tumor cells | <20 | <20 | <20 | – | – | –
2 | – | – | – | C[C@@H](O[C@H]1OCCN(Cc2nc(O)n(P(=O)(O)O)n2)[C@H]1c1ccc(F)cc1)c1cc(C(F)(F)F)cc(C(F)(F)F)c1 [Fosaprepitant] | – | <20 | <20 | <20 | water-soluble | – | – | <20 | <20 | <20 | reduced growth of triple negative tumor cells | <20 | <20 | <20 | 36 | 3 | 1.7
